# According to PubChem BioAssay (NCI):
#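 Results reflect a 48-hour exposure of cells in 96-well plates to compound at five concentrations. The concentration for full growth arrest is given as TGI.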
# What was measured:
# Assay in all cases: growth of human tumour cells (NCI), 48 h
# [1] = system: A549 NSCLC
# [2] = system: CAKI-1 renal
# [3] = system: EKVX NSCLC
# [4] = system: HCC-2998 colon
# [5] = system: HCT-15 colon
# [6] = system: NCI-H226 lung
# [7] = system: NCI-H522 lung
# [8] = system: RPMI-8226 leukemia
# [9] = system: SNB-19 CNS
# [10] = system: SNB-75 CNS
SMILES,TGI [1] [µM],TGI [2] [µM],TGI [3] [µM],TGI [4] [µM],TGI [5] [µM],TGI [6] [µM],TGI [7] [µM],TGI [8] [µM],TGI [9] [µM],TGI [10] [µM]
COC1=C(N=[N+]=[N-])C(=O)c2ncccc2C1=O,32.1,13.3,17.3,31,20.4,35.9,3.9,4.89,30.9,26
COc1cc(OC)c2c(O)c3c(cc2c1)CC(C)(C)CC3=O,> 100,> 100,> 100,> 100,> 100,> 100,> 100,> 100,> 100,> 100
Cn1c(=O)c2c(nc3n(Cc4ccccc4)c(=O)c(NCCBr)cn23)n(C)c1=O,> 100,37.6,48.1,52,> 100,63.1,62.8,> 100,> 100,49.8
CN(C)c1ccc(/C=C2\N=C(NN)NC2=O)cc1,> 100,> 100,> 100,> 100,> 100,> 100,> 100,> 100,> 100,> 100
O=c1c(SSc2coc3cc(F)ccc3c2=O)coc2cc(F)ccc12,> 100,43.3,99.3,35.6,33.3,> 100,47.3,> 100,> 100,33.6
Clc1cc2c(c(CSC3=NCN(CC4CC4)CN3)c1)OCOC2,77.6,> 100,53.4,28.4,> 100,48.9,30.1,38.2,> 100,39.6
O=C1/C(=C\c2cccc(Oc3ccccc3)c2)S(=O)(=O)C(c2ccccc2)N1c1ccccc1Cl (stereo not given),> 100,> 100,92.2,> 100,> 100,> 100,49.1,56.8,64,74.5
CCCCCC(=O)c1ccc2[nH]c3c(C)cc([N+](=O)[O-])c(C)c3c2c1,> 100,> 100,> 100,> 100,> 100,> 100,> 100,> 100,> 100,> 100
C=CCOc1ccccc1N=N/C(C#N)=N\Nc1ccccc1OCC=C,> 100,> 100,> 100,> 100,> 100,> 100,> 100,> 100,> 100,> 100
Cc1c2c(cc3c1[nH]c1ccccc13)C=NCC2,61.6,31.6,78.9,46.8,61.8,50.2,41.8,51.6,45.8,39.5
